Source: US20050209231A1, “Compositions and methods for inducing cardiomyogenesis” (priority 2004, published 2005)

Legend:
P19CL6 cells = test: MHC expression by immunostaining (anti-MHC antibody MF20), secondary assay for differentiation; assay type: cell-based, murine; conditions: for Optimal Activity: % cells positive for MHC after 7 days; for EC50: Mus musculus, P19CL6, inducing MHC expression
Procedure: MHC is one of the essential motor proteins responsible for cardiac muscle contractibility and was used as a secondary assay for differentiation. […] The P19CL6 cell line is a subclone of P19 EC cells with higher potential for cardiomyogenesis. See Habara-Ohkubo, Cell Struct. Funct., 21:101-110 (1996). MHC expression was determined in P19CL6 cells by immunostaining cells with anti-MHC antibody (MF20) (FIG. 2F).
The optimal activities of the cardiogenols in Table 1 are indicated by a series of "+" signs, as follows: ++: 10-25% cells are positive for MHC after 7 days; +++: 25-40% cells are positive for MHC after 7 days; ++++: 40-55% cells are positive for MHC after 7 days.

[1] = Toxicity of the cardiogenols (Table 1); assay type: cell-based, murine; conditions: mouse, P19CL6 cells
R1 mouse ESCs = test: Differentiation of undifferentiated R1 ESCs in monolayer into cardiac muscle (immunostaining of MHC, GATA-4, MEF2, Nkx2.5; beating); assay type: cell-based
Procedure: FIG. 2. Immunostaining of cardiac muscle markers in ESCs (A to E) and P19CL6 cells (F) treated with 0.25 μM cardiogenol C: (A) and (F) Myosin Heavy Chain (green); (B) GATA-4 (red); (C) MEF2 (red); (D) Nkx2.5 (red); and (E) Myosin Heavy Chain (green) and MEF2 (red). Cell nuclei were stained with DAPI (blue). Cells were fixed with 4% paraformaldehyde (Sigma) for 20 min. Cell staining was performed in PBS (Gibco) with 0.3% Triton X-100 and 6% horse serum. Primary antibodies were used at the following dilutions: myosin heavy chain (MHC) mouse monoclonal antibody MF20 (Developmental Studies Hybridoma Bank, 1:200), rabbit polyclonal anti-GATA-4 antibody (Santa Cruz Biotech, 1:300), rabbit anti-MEF2 antibody (Santa Cruz Biotech, 1:100) and goat anti-Nkx2.5 antibody (Santa Cruz Biotech, 1:100). Secondary antibodies were Cy2-conjugated anti-mouse (1:300), or Cy3-conjugated anti-rabbit or anti-goat antibodies (Jackson ImmunoResearch, 1:500). Cell nuclei were stained with DAPI (Roche). Images were taken with a Nikon Eclipes TE2000 microscope with 200-fold magnification. Double or triple-labeled images were assembled in Metamorph.
To confirm that these compounds are general cardiomyogenesis inducing agents, their effects on undifferentiated R1 mouse ESCs were analyzed. R1 mouse ESCs can be maintained in a pluripotent state with the addition of leukemia inhibitory factor (LIF) in the culture medium. The embryonic stem cell line R1 was cultured in gelatin-coated tissue culture dishes with Knockout DMEM with 15% ES serum replacement, 1 mM L-glutamine (from Gibco), 1% nonessential amino acids stock, 1% nucleosides stock, 0.1 mM […] (from Specialty Media) and 1000 units/mL of leukemia inhibitory factor (LIF, from Chemicon).
For differentiation, R1 cells were plated in a monolayer (10000 cells/well) in gelatin-coated 384-well or 96-well plates with 100 μL of DMEM with 10% FBS and 0.25 μM of compounds. LIF was not present during differentiation. After 7 days in culture (3 days with compounds and then, after changing the medium without additional compound added, another 4 days), the presence of beating cardiac muscle was visualized under a microscope. In addition to the expression of MHC (FIG. 2A), the cardiac specific gene, GATA-4, was detected by immunofluorescent staining using anti-GATA4 antibody (FIG. 2B).
Cardiogenol C has a […] aniline substituting at the pyrimidine C2 position and is very potent with an EC50 of 0.1 μM for inducing the differentiation of MHC positive cardiomyocytes from ESCs. […] See Boheler et al., Circ. Res., 91:189-201 (2002). […] This is in contrast to the current standard method of inducing cardiomyogenesis of ESCs by aggregation and formation of EBs, which results in only 5% of the cell population forming cardiomyocytes. See Boheler et al., (2002).
To further characterize the activity of Cardiogenol C, the expression of the cardiac muscle cell specific transcription factors MEF2 and Nkx2.5 was examined (FIGS. 2C and D). Members of the MEF2 family are essential for muscle development. See, e.g., Edmondson, et al., Development, 1251-1263 (1994); Lin et al., Science, 276:1404-1407 (1997). Nkx2.5 together with GATA-4 regulates the expression of multiple cardiac muscle specific genes (e.g., myosin light chain 2V, atria natriuretic factor, eHAND and homeodomain transcription factor HOP). See, e.g., Small et al., Cell, 110:725-735 (2002); Shin et al., Cell, 110:725-35 (2002). Moreover, the targeted interruption of Nkx2.5 gene is embryonic lethal and results in arrest of cardiac development. See, e.g., Lyons et al., Genes Dev., 9:1654-66 (1995). Approximately 90% of cardiogenol C treated cells stain positive for MEF2 and Nkx2.5, further confirming that ESCs are differentiated into cardiac muscle by cardiogenol C.

R1 cells = test: Cellular toxicity and cell death in R1 cells; assay type: cell-based
[2] = R1 cells, 0.25 μM compound for 3 days, then 4 days in medium without compound

EC50 (P19CL6 cells) [nM] | SMILES | Optimal Activity (P19CL6 cells) | EC50 [1] [nM] | treated cells stain positive for MEF2 (R1 mouse ESCs; ESCs) | treated cells stain positive for Nkx2.5 (R1 mouse ESCs; ESCs) | EC50 (R1 mouse ESCs; Mus musculus, Cardiomyocyte, read-out: EC50 for inducing the differentiation of MHC positive cardiomyocytes from ESCs) [nM] | beating areas (functional cardiac muscle) (R1 mouse ESCs; R1 cells treated with compound) | cells positive for GATA-4 (R1 mouse ESCs; [2]) | cells stained positive for MHC (R1 mouse ESCs; [2]) | concentration showing significant cellular toxicity (R1 cells)
1000 | OCCNc1ccnc(Nc2ccc(Nc3ccccc3)cc2)n1 [Cardiogenol A] | ++ (10-25% cells are positive for MHC after 7 days) | 5000 |  |  |  |  |  |  | 
500 | OCCNc1ccnc(Nc2ccc(Oc3ccccc3)cc2)n1 [Cardiogenol B] | +++ (25-40% cells are positive for MHC after 7 days) | 5000 |  |  |  |  |  |  | 
100 | OCCNc1ccnc(Nc2ccc(/C=C/c3ccccc3)cc2)n1 [Cardiogenol D] | ++++ (40-55% cells are positive for MHC after 7 days) | 2500 |  |  |  |  |  |  | 

SMILES | EC50 (P19CL6 cells) [nM] | Optimal Activity (P19CL6 cells) | EC50 [1] [nM] | treated cells stain positive for MEF2 (R1 mouse ESCs; ESCs) | treated cells stain positive for Nkx2.5 (R1 mouse ESCs; ESCs) | EC50 (R1 mouse ESCs; Mus musculus, Cardiomyocyte, read-out: EC50 for inducing the differentiation of MHC positive cardiomyocytes from ESCs) [nM] | beating areas (functional cardiac muscle) (R1 mouse ESCs; R1 cells treated with compound) | cells positive for GATA-4 (R1 mouse ESCs; [2]) | cells stained positive for MHC (R1 mouse ESCs; [2]) | concentration showing significant cellular toxicity (R1 cells)
COc1ccc(Nc2nccc(NCCO)n2)cc1 [Cardiogenol C] | 100 | ++++ (40-55% cells are positive for MHC after 7 days) | 25000 | Approximately 90% | Approximately 90% | 100 | many beating areas | more than 90% | more than 50% | greater than 25 μM
